Results from US20230085307A1, “PYRIDAZINONE COMPOUND AND HERBICIDE” (NISSAN CHEMICAL CORPORATION, priority 2019, published 2023).

Legend:
late watergrass = assay: Test Example 1: herbicidal activity, application before weed generation under submerged conditions (Table 16, symbol A); assay type: in vivo, late watergrass (Echinochloa oryzicola); conditions: amount of applied herbicide 320 g/ha
How it was run: (§1)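 Emulsion formulation, water-diluted to set dose, was put onto the flooded surface (4 cm depth, alluvial soil) the same day weeds were sown and 2.5-leaf rice transplanted. After 3 weeks at 25-30 °C under glass, each species was rated 0 (≤5% kill) to 5 (≥90% kill).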

barnyard grass [1] = assay: Test Example 4: herbicidal effect by soil treatment (Table 19, symbol H); assay type: in vivo, barnyard grass (Echinochloa crus-galli); conditions: amount of applied herbicide 320 g/ha
How it was run: (§2)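 Scoring uses the grading scale of an earlier test, three weeks post-application. Treatment consists of spraying a diluted emulsion formulation across the surface of sterilized diluvial soil in which seeds are buried near 1.5 cm deep; boxes are kept in a greenhouse between 25° C. and 30° C.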

velvetleaf [2] = assay: Test Example 4: herbicidal effect by soil treatment (Table 19, symbol M); assay type: in vivo, velvetleaf (Abutilon theophrasti); conditions: amount of applied herbicide 320 g/ha
How it was run: as §2

Chinese sprangletop = assay: Test Example 3: herbicidal effect by foliage application, Wagner pot (Table 18, symbol D); assay type: in vivo, chinese sprangletop (Leptochloa chinensis); conditions: 320 g/ha
How it was run: (§3)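 Plants were sown in alluvial soil held under 0.1–0.5 cm standing water and grown 14 days in a greenhouse at 25–30 °C. An emulsifiable formulation, water-diluted to the set dose, was then sprayed onto the foliage, and effects were scored three weeks later using previously defined criteria.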

windgrass [3] = assay: Test Example 5: herbicidal effect by foliage application, plastic box (Table 20, symbol L); assay type: in vivo, windgrass (Apera spica-venti); conditions: amount of applied herbicide 320 g/ha; foliage application after 14-day growth; evaluated three weeks after application
How it was run: (§4)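 Post-emergence foliar test in sterilized diluvial soil. Compound applied as water-diluted emulsion at a predetermined rate to 14-day-old plants; evaluation at three weeks.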

southern crabgrass [4] = assay: Test Example 4: herbicidal effect by soil treatment (Table 19, symbol F); assay type: in vivo, southern crabgrass (Digitaria ciliaris); conditions: amount of applied herbicide 320 g/ha
How it was run: as §2

wild oat [5] = assay: Test Example 4: herbicidal effect by soil treatment (Table 19, symbol I); assay type: in vivo, wild oat (Avena fatua); conditions: amount of applied herbicide 320 g/ha
How it was run: as §2

green foxtail [6] = assay: Test Example 4: herbicidal effect by soil treatment (Table 19, symbol G); assay type: in vivo, green foxtail (Setaria viridis); conditions: amount of applied herbicide 320 g/ha
How it was run: as §2

Italian ryegrass [7] = assay: Test Example 4: herbicidal effect by soil treatment (Table 19, symbol K); assay type: in vivo, Italian ryegrass (Lolium multiflorum); conditions: amount of applied herbicide 320 g/ha
How it was run: as §2

blackgrass [8] = assay: Test Example 4: herbicidal effect by soil treatment (Table 19, symbol J); assay type: in vivo, blackgrass (Alopecurus myosuroides); conditions: amount of applied herbicide 320 g/ha
How it was run: as §2

redroot pigweed [9] = assay: Test Example 5: herbicidal effect by foliage application, plastic box (Table 20, symbol N); assay type: in vivo, redroot pigweed (Amaranthus retroflexus); conditions: amount of applied herbicide 320 g/ha; foliage application after 14-day growth; evaluated three weeks after application
How it was run: as §4

barnyard grass [10] = assay: Test Example 3: herbicidal effect by foliage application, Wagner pot (Table 18, symbol H); assay type: in vivo, barnyard grass (Echinochloa crus-galli); conditions: 320 g/ha
How it was run: as §3

green foxtail [11] = assay: Test Example 5: herbicidal effect by foliage application, plastic box (Table 20, symbol G); assay type: in vivo, green foxtail (Setaria viridis); conditions: amount of applied herbicide 320 g/ha; foliage application after 14-day growth; evaluated three weeks after application
How it was run: as §4

wild oat [12] = assay: Test Example 5: herbicidal effect by foliage application, plastic box (Table 20, symbol I); assay type: in vivo, wild oat (Avena fatua); conditions: amount of applied herbicide 320 g/ha; foliage application after 14-day growth; evaluated three weeks after application
How it was run: as §4

Italian ryegrass [13] = assay: Test Example 5: herbicidal effect by foliage application, plastic box (Table 20, symbol K); assay type: in vivo, Italian ryegrass (Lolium multiflorum); conditions: amount of applied herbicide 320 g/ha; foliage application after 14-day growth; evaluated three weeks after application
How it was run: as §4

lambsquarters [14] = assay: Test Example 5: herbicidal effect by foliage application, plastic box (Table 20, symbol O); assay type: in vivo, lambsquarters (Chenopodium album); conditions: amount of applied herbicide 320 g/ha; foliage application after 14-day growth; evaluated three weeks after application
How it was run: as §4

windgrass [15] = assay: Test Example 4: herbicidal effect by soil treatment (Table 19, symbol L); assay type: in vivo, windgrass (Apera spica-venti); conditions: amount of applied herbicide 320 g/ha
How it was run: as §2

barnyard grass [16] = assay: Test Example 5: herbicidal effect by foliage application, plastic box (Table 20, symbol H); assay type: in vivo, barnyard grass (Echinochloa crus-galli); conditions: amount of applied herbicide 320 g/ha; foliage application after 14-day growth; evaluated three weeks after application
How it was run: as §4

lambsquarters [17] = assay: Test Example 4: herbicidal effect by soil treatment (Table 19, symbol O); assay type: in vivo, lambsquarters (Chenopodium album); conditions: amount of applied herbicide 320 g/ha
How it was run: as §2

rice flat sedge = assay: Test Example 3: herbicidal effect by foliage application, Wagner pot (Table 18, symbol E); assay type: in vivo, rice flat sedge (Cyperus iria); conditions: 320 g/ha
How it was run: as §3

persian speedwell [18] = assay: Test Example 4: herbicidal effect by soil treatment (Table 19, symbol R); assay type: in vivo, Persian speedwell (Veronica persica); conditions: amount of applied herbicide 320 g/ha
How it was run: as §2

Japanese bulrush = assay: Test Example 1: herbicidal activity, application before weed generation under submerged conditions (Table 16, symbol B); assay type: in vivo, Japanese bulrush (Schoenoplectus juncoides); conditions: amount of applied herbicide 320 g/ha
How it was run: as §1

persian speedwell [19] = assay: Test Example 5: herbicidal effect by foliage application, plastic box (Table 20, symbol R); assay type: in vivo, Persian speedwell (Veronica persica); conditions: amount of applied herbicide 320 g/ha; foliage application after 14-day growth; evaluated three weeks after application
How it was run: as §4

oval-leafed pondweed = assay: Test Example 1: herbicidal activity, application before weed generation under submerged conditions (Table 16, symbol C); assay type: in vivo, oval-leafed pondweed (Monochoria vaginalis); conditions: amount of applied herbicide 320 g/ha
How it was run: as §1

southern crabgrass [20] = assay: Test Example 5: herbicidal effect by foliage application, plastic box (Table 20, symbol F); assay type: in vivo, southern crabgrass (Digitaria ciliaris); conditions: amount of applied herbicide 320 g/ha; foliage application after 14-day growth; evaluated three weeks after application
How it was run: as §4

redroot pigweed [21] = assay: Test Example 4: herbicidal effect by soil treatment (Table 19, symbol N); assay type: in vivo, redroot pigweed (Amaranthus retroflexus); conditions: amount of applied herbicide 320 g/ha
How it was run: as §2

blackgrass [22] = assay: Test Example 5: herbicidal effect by foliage application, plastic box (Table 20, symbol J); assay type: in vivo, blackgrass (Alopecurus myosuroides); conditions: amount of applied herbicide 320 g/ha; foliage application after 14-day growth; evaluated three weeks after application
How it was run: as §4

chickweed [23] = assay: Test Example 4: herbicidal effect by soil treatment (Table 19, symbol P); assay type: in vivo, common chickweed (Stellaria media); conditions: amount of applied herbicide 320 g/ha
How it was run: as §2

chickweed [24] = assay: Test Example 5: herbicidal effect by foliage application, plastic box (Table 20, symbol P); assay type: in vivo, common chickweed (Stellaria media); conditions: amount of applied herbicide 320 g/ha; foliage application after 14-day growth; evaluated three weeks after application
How it was run: as §4

velvetleaf [25] = assay: Test Example 5: herbicidal effect by foliage application, plastic box (Table 20, symbol M); assay type: in vivo, velvetleaf (Abutilon theophrasti); conditions: amount of applied herbicide 320 g/ha; foliage application after 14-day growth; evaluated three weeks after application
How it was run: as §4

Row | Structure (SMILES) | Herbicidal effect, A: late watergrass (late watergrass) | Herbicidal effect by soil treatment, H: barnyard grass (barnyard grass [1]) | Herbicidal effect by soil treatment, M: velvetleaf (velvetleaf [2]) | herbicidal effect on Chinese sprangletop (D) (Chinese sprangletop) | Herbicidal effect by foliage application, L: windgrass (windgrass [3]) | Herbicidal effect by soil treatment, F: southern crabgrass (southern crabgrass [4]) | Herbicidal effect by soil treatment, I: wild oat (wild oat [5]) | Herbicidal effect by soil treatment, G: green foxtail (green foxtail [6]) | Herbicidal effect by soil treatment, K: Italian ryegrass (Italian ryegrass [7]) | Herbicidal effect by soil treatment, J: blackgrass (blackgrass [8]) | Herbicidal effect by foliage application, N: redroot pigweed (redroot pigweed [9]) | herbicidal effect on barnyard grass (H) (barnyard grass [10]) | Herbicidal effect by foliage application, G: green foxtail (green foxtail [11]) | Herbicidal effect by foliage application, I: wild oat (wild oat [12]) | Herbicidal effect by foliage application, K: Italian ryegrass (Italian ryegrass [13]) | Herbicidal effect by foliage application, O: lambsquarters (lambsquarters [14]) | Herbicidal effect by soil treatment, L: windgrass (windgrass [15]) | Herbicidal effect by foliage application, H: barnyard grass (barnyard grass [16]) | Herbicidal effect by soil treatment, O: lambsquarters (lambsquarters [17]) | herbicidal effect on rice flat sedge (E) (rice flat sedge) | also measured
1 | CCOc1ccccc1-c1sc2c(C)cccc2c1-c1c(O)c(C)nn(C)c1=O [4-112] | 3 (Herbicidal rate of 40% or more and less than 70%) | 3 (Herbicidal rate of 40% or more and less than 70%) | 3 (Herbicidal rate of 40% or more and less than 70%) | 4 (Herbicidal rate of 70% or more and less than 90%) | 5 (Herbicidal rate of 90% or more (almost completely withered)) | 3 (Herbicidal rate of 40% or more and less than 70%) | 0 (Herbicidal rate of 5% or less (almost no effect)) | 4 (Herbicidal rate of 70% or more and less than 90%) | 3 (Herbicidal rate of 40% or more and less than 70%) | 2 (Herbicidal rate of 20% or more and less than 40%) | 5 (Herbicidal rate of 90% or more (almost completely withered)) | 5 (Herbicidal rate of 90% or more (almost completely withered)) | 5 (Herbicidal rate of 90% or more (almost completely withered)) | 4 (Herbicidal rate of 70% or more and less than 90%) | 4 (Herbicidal rate of 70% or more and less than 90%) | 5 (Herbicidal rate of 90% or more (almost completely withered)) | 4 (Herbicidal rate of 70% or more and less than 90%) | 4 (Herbicidal rate of 70% or more and less than 90%) | 3 (Herbicidal rate of 40% or more and less than 70%) | 5 (Herbicidal rate of 90% or more (almost completely withered)) | Herbicidal effect by soil treatment, R: persian speedwell (persian speedwell [18]): 5 (Herbicidal rate of 90% or more (almost completely withered)); Herbicidal effect, B: Japanese bulrush (Japanese bulrush): 3 (Herbicidal rate of 40% or more and less than 70%); Herbicidal effect by foliage application, R: persian speedwell (persian speedwell [19]): 5 (Herbicidal rate of 90% or more (almost completely withered)); Herbicidal effect, C: oval-leafed pondweed (oval-leafed pondweed): 0 (Herbicidal rate of 5% or less (almost no effect)); Herbicidal effect by foliage application, F: southern crabgrass (southern crabgrass [20]): 4 (Herbicidal rate of 70% or more and less than 90%); Herbicidal effect by soil treatment, N: redroot pigweed (redroot pigweed [21]): 4 (Herbicidal rate of 70% or more and less than 90%); Herbicidal effect by foliage application, J: blackgrass (blackgrass [22]): 5 (Herbicidal rate of 90% or more (almost completely withered)); Herbicidal effect by soil treatment, P: chickweed (chickweed [23]): 3 (Herbicidal rate of 40% or more and less than 70%); Herbicidal effect by foliage application, P: chickweed (chickweed [24]): 5 (Herbicidal rate of 90% or more (almost completely withered)); Herbicidal effect by foliage application, M: velvetleaf (velvetleaf [25]): 5 (Herbicidal rate of 90% or more (almost completely withered))
2 | CCOc1cccc(-c2sc3c(C)cccc3c2-c2c(O)c(C)nn(C)c2=O)c1 [4-114] | 3 (Herbicidal rate of 40% or more and less than 70%) | 1 (Herbicidal rate of 5% or more and less than 20%) | 0 (Herbicidal rate of 5% or less (almost no effect)) | 3 (Herbicidal rate of 40% or more and less than 70%) | 1 (Herbicidal rate of 5% or more and less than 20%) | 4 (Herbicidal rate of 70% or more and less than 90%) | 0 (Herbicidal rate of 5% or less (almost no effect)) | 4 (Herbicidal rate of 70% or more and less than 90%) | 4 (Herbicidal rate of 70% or more and less than 90%) | 0 (Herbicidal rate of 5% or less (almost no effect)) | 4 (Herbicidal rate of 70% or more and less than 90%) | 4 (Herbicidal rate of 70% or more and less than 90%) | 4 (Herbicidal rate of 70% or more and less than 90%) | 0 (Herbicidal rate of 5% or less (almost no effect)) | 5 (Herbicidal rate of 90% or more (almost completely withered)) | 3 (Herbicidal rate of 40% or more and less than 70%) | 0 (Herbicidal rate of 5% or less (almost no effect)) | 0 (Herbicidal rate of 5% or less (almost no effect)) | 4 (Herbicidal rate of 70% or more and less than 90%) | 4 (Herbicidal rate of 70% or more and less than 90%) | Herbicidal effect by soil treatment, R: persian speedwell (persian speedwell [18]): 4 (Herbicidal rate of 70% or more and less than 90%); Herbicidal effect, B: Japanese bulrush (Japanese bulrush): 0 (Herbicidal rate of 5% or less (almost no effect)); Herbicidal effect by foliage application, R: persian speedwell (persian speedwell [19]): 5 (Herbicidal rate of 90% or more (almost completely withered)); Herbicidal effect, C: oval-leafed pondweed (oval-leafed pondweed): 0 (Herbicidal rate of 5% or less (almost no effect)); Herbicidal effect by foliage application, F: southern crabgrass (southern crabgrass [20]): 4 (Herbicidal rate of 70% or more and less than 90%); Herbicidal effect by soil treatment, N: redroot pigweed (redroot pigweed [21]): 3 (Herbicidal rate of 40% or more and less than 70%); Herbicidal effect by foliage application, J: blackgrass (blackgrass [22]): 1 (Herbicidal rate of 5% or more and less than 20%); Herbicidal effect by soil treatment, P: chickweed (chickweed [23]): 3 (Herbicidal rate of 40% or more and less than 70%); Herbicidal effect by foliage application, P: chickweed (chickweed [24]): 5 (Herbicidal rate of 90% or more (almost completely withered)); Herbicidal effect by foliage application, M: velvetleaf (velvetleaf [25]): 1 (Herbicidal rate of 5% or more and less than 20%)
